Measured values published in patent US6664065B2, “Measuring viral reverse transcriptase activity” (priority 2000, dated 2003).

What was measured:
taq polymerase = biological target: T1, taq polymerase (Thermus aquaticus, UniProt P19821); test: AZT included in the PCR reaction mixture in place of dT (TaqMan PCR step); format: biochemical
T1 construct: purchased Perkin Elmer PE 4304437
Text: Next, an aliquot of the cDNA formed in the RT step above is brought into the Taqman® instrument (PE Model 7700) and put into a reaction mixture which contains Taqman® Universal master mix (taq polymerase in buffer), beta actin-specific forward primer, beta actin-specific reverse primer, and beta actin Taqman® probe. The PCR step takes place in the instrument under standard Taqman® PCR conditions. Although, as described above, the present method is depicted as a two test tube reaction, one skilled in the art will realize that these steps can be combined in a single reaction vessel.
The transcriptase reaction was initiated by placing the reaction mixture in a MWG Thermocycler, or equivalent, under thermocycling conditions at 25° C. for 10 minutes, then at 37° C. for 60 minutes, and finally at 95° C. for 5 minutes. This final thermocycling step deactivated the rHIV RT. Next 5 μL of the post-thermocycle RT reaction mixture, which presumably contained cDNA, were added to 45 μL of the Master Mix solution. The Master Mix Solution contained 25 μL 2×Taqman Universal Master Mix, 5 μL beta Actin Forward Primer, 5 μL Beta Actin Reverse Primer and […]. Thus, the total PCR reaction mixture contained 50 μL. […]

rHIV RT = biological target: T2, rHIV RT (Human immunodeficiency virus type 1 group M subtype B, UniProt P03366); test: TaqMan real-time RT-PCR assay of rHIV RT inhibition by a test agent; format: biochemical, HIV
T2 construct: rHIV RT—Worthington Biochemical catalogue No. 5006 (500 U at 12.5 U/μL); purchased Worthington Biochemical 5006
Description: In this regard, oligo dT is used as a template for rHIV RT. Oligo dT is complementary to the polyadenylated RNA-component of the total human heart RNA which present in the reaction mixture. rHIV RT forms cDNA from the oligo dT/RNA complex in the presence of dNTP nucleotides.
Thus, the temperature cycling conditions for rHIV RT were about 25° C. for 10 minutes, followed by about 37° C. for 60 minutes, and finally 95° C. for 5 minutes. At 95° C., the activity of rHIV RT was destroyed.
In this context, the test agent preferably is added when the template RNA, the primer which is complementary to the template RNA, and the dNTPs are mixed in the presence of the sample. Accordingly, although the sample may contain active RT, cDNA transcription by the RT can be inhibited by the presence of the test agent in the reaction mixture.
The inhibiting properties of the test agent are reflected in an increase in CT value for the sample which contains the test agent.
An rHIV RT solution (Master Mix solution)was prepared which contained 5 μL 10× RT reaction buffer, 11 μL 25 mM MgCl2, 10 μL 10 mM dNTP working stock solution, 2.5 μL 50 μM oligo dT, 1 μL RNAse inhibitor and 1.25 μL rHIV RT. The total volume of the Master Mix solution was 30.75 μL.
were added to 30.75 μL of the Master Mix solution. Thus, the reaction mixture contained 50 μL total solution volume.
The controls for the present example included a positive control containing 18.25 μL water plus 1 μL RNA, and a negative control containing 19.25 μL water. […]

[1] = AZT 1.25 mM down to 250 μM in RT reaction mixture with a fixed concentration of dT, all concentrations

T1 sequence (P19821 whole entry): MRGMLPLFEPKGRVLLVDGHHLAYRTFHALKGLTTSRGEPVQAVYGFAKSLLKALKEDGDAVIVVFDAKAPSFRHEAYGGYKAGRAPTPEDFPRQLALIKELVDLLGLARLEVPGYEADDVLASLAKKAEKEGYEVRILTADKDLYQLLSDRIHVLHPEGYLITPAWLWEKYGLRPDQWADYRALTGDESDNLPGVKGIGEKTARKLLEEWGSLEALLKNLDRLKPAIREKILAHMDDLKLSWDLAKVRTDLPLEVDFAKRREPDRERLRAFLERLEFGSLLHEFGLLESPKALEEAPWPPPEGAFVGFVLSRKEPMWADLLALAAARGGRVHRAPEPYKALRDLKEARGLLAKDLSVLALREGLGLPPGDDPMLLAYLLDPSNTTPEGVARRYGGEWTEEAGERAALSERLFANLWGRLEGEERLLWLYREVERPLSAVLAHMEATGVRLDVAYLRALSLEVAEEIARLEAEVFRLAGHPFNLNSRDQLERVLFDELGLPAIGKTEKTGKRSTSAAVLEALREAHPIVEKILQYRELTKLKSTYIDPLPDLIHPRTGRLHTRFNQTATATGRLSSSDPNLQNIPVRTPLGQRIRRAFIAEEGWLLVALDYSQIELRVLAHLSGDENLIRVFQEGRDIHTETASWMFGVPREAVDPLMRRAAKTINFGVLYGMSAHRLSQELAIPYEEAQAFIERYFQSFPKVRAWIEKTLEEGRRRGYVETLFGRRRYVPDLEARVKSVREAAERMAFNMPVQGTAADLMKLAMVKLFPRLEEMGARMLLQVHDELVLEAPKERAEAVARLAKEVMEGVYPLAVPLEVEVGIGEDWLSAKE

Cc1cn([C@H]2C[C@H](N=[N+]=[N-])[C@@H](CO)O2)c(=O)[nH]c1=O [AZT]
amplification of the cDNA after the PCR step (taq polymerase): NO amplification
amplification of cDNA after the PCR step (rHIV RT; AZT 250 μM to 1.25 mM added to the rHIV-RT reaction mixture in place of dT): no amplification of cDNA was observed
inhibition of activity (rHIV RT; [1]): 100%
observed CT (rHIV RT; [1]): greater than 40 cycles
